Experimental data taken from patent publication US20130338092A1, “COMPOUNDS AND METHODS FOR TARGETING LEUKEMIC STEM CELLS” (The Broad Institute, Inc., priority 2011, published 2013).
Entries after “also recorded” stand apart in the source; their conditions may differ. Read-outs that look alike come from different tables or passages of the source.

How the values were obtained:
[1] = test system: normal HSPCs; test: Normal HSPC coculture on primary MSC stroma; details: for IC50: Mus musculus
Experimental: The material was cleaned, crushed and sequentially passed through 100 and 70 μM filters (Falcon). […] The biotin-labeled cells were spun down, resuspended in 0.5% FBS in PBS, and incubated for 15-30 minutes at 4° C. with agitation with 1 mL of Dynabead M-280 streptavidin-linked magnetic beads per 4 mice. The bead-linked cells were depleted using magnetic separation and rinsed once. The lineage- and CD48-depleted cell fraction was labeled with streptavidin-APC-Cy7 antibody from BD Biosciences and c-kit-APC, Sca-1-FITC, CD48-Pacific Blue, and CD150 PE-Cy7 antibodies from eBioscience. DsRed-positive lineage-Sca-1+c-kit+CD48− HSCs were sorted using a FACS DiVa or FACS ARIA (BD Biosciences).
A total of 20 μL of 20 μg/mL fibronectin (Millipore) in PBS was added to each well of a 384-well clear-bottomed black tissue-culture treated plate (Corning) and incubated for 30-120 minutes at 33° C. or 37° C. […] The fibronectin solution was removed from each well using a 24-channel wand aspirator; then 30 μL of BMSC solution was added to plate 2000 BMSCs/well. […] Each plate was covered with a sterile rayon breathable membrane (VWR) and plastic lid, and then spun at 500 rpm (approximately 60× gravity) with slow braking. The plates were incubated at room temperature for 60-90 minutes before incubation at 33° C. with 5% CO2 for 3 days prior to HSC addition.
The sorted HSCs, SLAMs and progenitor cells were resuspended in phenol-red free alpha-MEM with 20% FBS and diluted to 10,000 cells/mL. A total of 20 μL of cell solution containing 200 hematopoietic cells was added to each well using a multichannel pipettor or liquid-dispensing system. Each plate was covered with a sterile rayon breathable membrane (VWR) and plastic lid, and then spun at 500 rpm (approximately 60×gravity) with slow braking. The plates were incubated at room temperature for 60-90 minutes before incubation at 33° C. with 5% CO2 overnight prior to compound or cytokine addition.
Image analysis was performed using MetaXpress software from MDC and CellProfiler software from the Broad Institute of Harvard and MIT.
Compound addition and incubation was performed as described for the LSC coculture screen above, but without a media change or readdition of the compound.
The selected set was screened in 8-point dose against both normal HSPCs with a high number of replicates (6) and LSC-enriched leukemia cells, each cocultured on primary MSCs.

[2] = test system: MLL-AF9 LSC; test: Triple coculture (LSCs and HSPCs on primary MSCs), leukemia cells; type: cell-based, murine; details: for leukemic cells in triple coculture: 200 nM lovastatic acid or 1 μM BRD7116, 5 days; for IC50: Mus musculus, MLL-AF9, murine LSCs in triple coculture with HSPCs on MSCs
Experimental: As in the original assay approach, treatment of these triple cocultures began one day after hematopoietic cell plating and was assessed 5 days later.
An in vitro therapeutic index was determined for each compound, a comparative measure of the potential for anti-LSC efficacy relative to the potential for dose-limiting toxicities to normal HSCs (myeloablation), or to normal progenitors (myelosuppression). Specifically, ratios were created using the IC50s for primary murine HSPCs in triple coculture as the numerator, and the IC50s for primary murine leukemia inhibition in triple coculture as the denominator, toward assessing the potential for HSC harm relative to LSC inhibition.

[3] = test system: normal primary human CD34+ cells; test: Alamar Blue assay for human progenitor cell toxicity; details: for IC50: Homo sapiens, 168 h, read-out: Normal Progenitor* IC50
Experimental: Normal G-CSF mobilized CD34+ cells (AllCells, LLC, Emeryville, Calif.), normal BM CD34 cells (MSKCC, New York, N.Y.) and cord blood CD34+ cells (New York Blood Center, New York) were previously frozen and thawed out before the proliferation assay was set up in 384-well plates. Briefly, 50 μl of IMDM medium containing 20% FBS (Gemini Bio-Product, West Sacramento, Calif.), 20 ng/ml of recombinant human Kit Ligand (rhKL), 20 ng/ml of rh-Interleukin-3 (rhIL-3), 20 ng/ml of rhG-CSF, 6 units/ml of rhEPO, 10-42-mercaptoethanol, 2 mM glutamine, 50 u/ml penicillin, 50 μg/ml streptomycin, 1,000 viable CD34+ cells in the presence of various doses of Broad compounds (drug-treated group) or 0.1% DMSO (control group) were incubated at 37° C. After 6 days, 5 μl of AlamaBlue (AbD Serotec, Raleigh, N.C.) was added to each well and further incubated overnight. The fluorescence signal was then measured with GeminiXS microplate reader (Molecular Devices, Sunnyvale, Calif.). Effect of small molecules to proliferation of CD34+ cells was reported as Relative fluorescent intensity (Relative Fluorescent Intensity=Fluorescent Intensity (drug-treated)/Fluorescent Intensity (Control).
Finally, experiments were performed to examine whether BRD7116 or lovastatic acid were likely to cause myelosuppression, a type of deleterious toxicity in patients resulting from harm to normal human hematopoietic progenitor cells. This consideration is especially important as conventional therapies currently used in the clinic have myelosuppressive toxicities that are dose-limiting. To this end, a hematopoietic progenitor assay was employed to compare the effects of BRD7116 and lovastatic acid to effects given by such known myelosuppressive compounds. In this assay, normal primary human CD34^+ cord blood cells were plated with cytokines in suspension, treated with compound for 7 days, and then examined for viability relative to DMSO treated controls.

[4] = test system: CD34+ cells from primary human leukemia samples; test: Human CD34+ CAFC assay, leukemia samples; type: cell-based; details: 1.25 μM to 10 μM, 18 hours exposure, read at 5 weeks (2 weeks FLT3-ITD)
Experimental: Samples were centrifuged over Ficoll-Paque PLUS (GE Heathcare) step gradient (2000×g for 30 min in 50 ml tubes) to obtain mononuclear cells and then CD34^+ cells were selected with immunomagnetic beads (MACS Cell Separation, Miltenyi Biotec, Auburn, Calif.), except in one case, NPM1 mutation, which was CD34^− by flow cytometry and mononuclear cells were used. 50,000 cells were placed into 12.5 cm^2 flasks (Becton Dickinson Labware, Franklin Lakes, N.J.) in co-culture with the MS-5 mouse bone marrow-derived stromal cell line (kindly provided by Dr. Itoh, Dept. of Biology, Niigata University, Japan) and DMSO control and the number of final cobblestones was later read. The number of cells needed to form one cobblestone was then placed in triplicate for each sample with each drug at serial drug dilutions from 10 μM to 0.63 μM as well as with DMSO 0.5% for control purposes and incubated overnight with Iscove's modified Dulbecco's medium (IMDM, in house media preparation laboratory)+20% fetal calf serum (FCS, Atlanta Biologicals, Lawrenceville, Ga.) with glutamine (2 mM/ml, in house media preparation laboratory), monothioglycerol (MTG, 10 nM/ml, Sigma Cell Culture, St. Louis Mo.), c-Kit ligand (20 ng/ml, Amgen, Thousand Oaks, Calif.), Flt ligand (20 ng/ml, Imclone, Bridgewater, N.J.), TPO (20 ng/ml, Amgen) and IL-3 (20 ng/ml, Amgen). Cells were then washed to remove the drugs and placed into 96 well cell culture plates (Becton Dickinson) with α-MEM (in house media preparation laboratory)+12.5% FCS+12.5% horse serum (Gemini Bio-products, West Sacramento, Calif.) with glutamine, MTG, hydrocortisone (1 nM/ml, Sigma) and IL-3 in co-culture with MS-5 stromal cells. […] The same procedure was followed with normal CD34+ cells obtained from cord blood.
The cells were treated with compound or DMSO carrier control at four doses (ranging from 1.25 μM to 10 μM) in triplicate for 18 hours, washed thoroughly, then plated onto human stromal MS-5 monolayers (Itoh, K., Tezuka, H., Sakoda, H., Konno, M., Nagata, K., Uchiyama, T., Uchino, H., and Mori, K. J. (1989). Exp Hematol 17, 145-153.) and maintained in coculture with one subsequent half media change. After 5 weeks (2 weeks for the FLT3-ITD sample (Moore, M. A., Dorn, D. C., Schuring a, J. J., Chung, K. Y., and Morrone, G. (2007). Exp Hematol 35, 105-116.)), cobblestone formation was determined, and dose-response curves against the 7 cell types were generated for each compound.

[5] = test system: dsRed+ LSCs; test: Syngeneic transplantation of compound-treated triple cocultures, leukemia onset / survival; type: in vivo, mice; details: cocultures treated 48 hours ex vivo, then transplanted; vs DMSO
Experimental: Heterotypic cocultures containing dsRed+ LSCs, CD45.1+ HSPCs, and GFP+ MSCs were exposed to compounds for 48 hours, then transplanted en masse post trypsinization with untreated wild-type helper splenocytes (CD45.1+CD45.2+) into lethally irradiated, wildtype recipient animals (CD45.2+). Latency of leukemia onset was compared for mice receiving cocultures treated with compound compared to DMSO control treated cocultures. The engraftment of the normal HSPCs treated and injected along with the leukemia cells was quantified by FACs analysis of the bone marrow of mice alive at the 16 week endpoint across treatments.
As in vivo readouts may better reflect hematopoietic stem cell function compared to in vitro readouts (Purton, L. E., and Scadden, D. T. (2007). Cell Stem Cell 1, 263-270.; Bock, T. A. (1997). Stem Cells 15 Suppl 1, 185-195.), our results were confirmed using murine transplantation studies. […] Compounds that increase disease latency relative to DMSO control are considered active. […] Bone marrow repopulating ability is a functional measure of normal HSPCs, assessed by quantifying long-term engraftment and differentiation patterns in recipient mice (Bock, T. A. (1997). Stem Cells 15 Suppl 1, 185-195.; Nguyen, L. V., Vanner, R., Dirks, P., and Eaves, C. J. (2012). Nat Rev Cancer 12, 133-143.). […]

[6] = read-out: Normal IC50, HSPCs on primary MSC stroma, 8-point dose

With CC1(C)C(C(=O)Nc2ccc(S(=O)(=O)c3ccc(NC(=O)C4C(C)(C)C4(C)C)cc3)cc2)C1(C)C [BRD7116] the IC50 [1, 6] was over 20 µM, the “leukemic cells in triple coculture” value [2] was “selective loss of the leukemia population; also recorded: selectively cleared the dsRed^+ leukemic cells” and the IC50 [2] was 0.5 µM. The “toxicity to hematopoietic progenitor cells” value [3] was “minimal toxicity”, the IC50 [3] was 10 µM and the “leukemia cobblestone inhibition (human CAFC)” value [4] was “leukemia cobblestone inhibition was observed across all six primary leukemia samples”. The “latency of leukemia onset / survival of recipient mice” value [5] was “mild, but statistically significant prolonged latency of leukemia onset”.

CCC(C)C(=O)OC1CC(C)C=C2C=CC(C)C(CCC(O)CC(O)CC(=O)O)C21 (centres unmarked) [Lovastatic acid] was tested, and the IC50 [1, 6] was over 20 µM, the IC50 ([1]; read-out: Normal IC50, statins (acid form), HSPCs cocultured on primary MSC stroma) was over 10 µM and the “effect on normal HSPCs in coculture” value ([1]; up to 20 μM, the maximum dose tested) was “minimal toxicity”. The “leukemic cells in triple coculture” value [2] was “selectively cleared the dsRed^+ leukemic cells”, the “leukemic cells in triple coculture” value ([2]; listed as lovastatin) was “selective loss of the leukemia population” and the IC50 [2] was 0.1 µM. The “toxicity to hematopoietic progenitor cells” value [3] was “minimal toxicity”, the IC50 [3] was 10 µM and the “leukemia cobblestone inhibition (human CAFC)” value [4] was “leukemia cobblestone inhibition was observed across all six primary leukemia samples”. The “latency of leukemia onset / survival of recipient mice” value [5] was “survived substantially longer than the DMSO control group”.
